Source: paper PMC6154683, “High-Throughput Determination of Sodium Danshensu in Beagle Dogs by the LCMS/MS Method, Employing Liquid-Liquid Extraction Based on 96-Well Format Plates” (Molecules : A Journal of Synthetic Chemistry and Natural …, 2017)

Experiments:
[1] = Stability of sodium danshensu in beagle dog plasma (QC samples); format: in vitro ADME; settings: for Measured (mean ± SD): n = 3; for long-term stability in plasma (in words): beagle dog plasma stored at −80 °C for 20 days
Protocol: The analyte stability determinations comprised ambient temperature stability, long-term stability, autosampler stability, and freeze-thaw cycle stability, which were evaluated by analyzing two QC levels in triplicate. The QC samples were analyzed after storage at room temperature for 2 h, at −80 °C for 20 days, and in the autosampler at room temperature for at least 24 h after extraction and after three freeze-thaw cycles, which consisted of storage at −80 °C for a minimum of 12 h followed by thawing at room temperature.

[2] = Pharmacokinetic and bioavailability study in beagle dogs after intravenous and oral administration (plasma, LC-MS/MS); format: in vivo; settings: for C0: mean ± SD
Protocol: All the studies on animals were done in accordance with the Guidelines for the Care and Use of Laboratory Animals. Beagle dogs (~10 kg) were purchased from the Shanghai Slack Experimental Animal Co., Ltd. (Shanghai, China) and acclimated in the laboratory for 1 week prior to the experiments, housed in separate cages under room temperature with a 12 h light/dark cycle, and free access to standard diet and water. All the beagle dogs were fasted for 12 h before the experiments with free access to water.
For pharmacokinetics study, 24 beagle dogs were randomly divided into four groups (n = 6). Four different dosages (5 mg/kg, 10 mg/kg, 15 mg/kg I.V., 60 mg/kg P.O.) were designed and were assigned randomly to the four groups of beagle dogs. Blood samples (500 μL) were withdrawn from the foreleg vein into heparinized tubes in strict accordance with the time points of the protocol made in advance. Then after centrifuging at 8000 rpm for 10 min, the supernatant plasma sample was transferred into another tube and frozen at −80 °C until analysis. The time points for blood sampling were listed as follows. Pre-dose and subsequently at 0, 0.03, 0.08, 0.17, 0.33, 0.67, 1, 1.5, 2, 3, 4, 6, 8, and 12 h were used for the three intravenous injection groups, and pre-dose, 0.08, 0.17, 0.25, 0.5, 0.75, 1, 1.5, 2, 3, 4, 6, 8, and 12 h were used for the oral administration group.
For plasma sample preparation, the LLE in 96-well format plate was used. Prior to analysis, all frozen plasma samples, calibration standards, and quality control samples were thawed and allowed to equilibrate at room temperature. The samples were vortexed adequately using a vortex mixer (Beijing Targintech Co. Ltd., Beijing, China) before pipetting. Samples were prepared using LLE in 96-well deep format plate (2 mL, Corning Life Sciences—Axygen Inc., Union City, CA, USA). An automatic multichannel pipette (INTEGRA Biosciences AG, Zizers, Switzerland) was used for liquid transfer steps. Aliquots of 100 μL plasma were transferred into the 96-well deep format plate. Aliquots of 10 μL of IS solution (25 ng/mL) were added to each well except for the well designated for the double blank plasma. Then 20 μL of 2 mol/L hydrochloric acid was added to each well of the plate, and vortexed for 30 s for mixing. The mixed sample was then extracted with 1000 μL methyl tert-butyl ether by vortex-mixing for 3 min in a platform shaker (Grant, Cambridge, UK). After centrifugation at 12,000 rpm for 10 min, 800 μL of the upper organic layer was transferred from the original sample plates into the respective positions of the new 2.0 mL deep 96-well plates. Extracts were concentrated to dryness by an automated concentration evaporation system at 30 °C under a gentle stream of nitrogen (Turbo Vap 96, Biotage AB, Uppsala, Sweden) for 15 min. After drying, the residue was reconstituted with 100 μL of methanol–water (50:50, v/v) and was then vortexed for 3 min and centrifuged for 10 min at 12,000 rpm. A 5 μL aliquot of the supernatant was injected into the LC-MS/MS system for analysis.
The pharmacokinetic analysis was performed using the non-compartmental model analysis. The concentration versus time data and the pharmacokinetic parameters including Cmax, t1/2, Tmax (h), AUC0-t, AUC0-12, MRT, CL, and Vd were assessed via non-compartmental analysis using the BAPP software (version 2.0, Center of Drug Metabolism and Pharmacokinetics, China Pharmaceutical University, Nanjing, china). The absolute bioavailability (%F) of sodium danshensu was estimated via AUC0→∞ values of oral and intravenous administration.

[3] = dog, plasma, IV 5 mg/kg, beagle dogs
[4] = dog, plasma, IV 10 mg/kg, beagle dogs
[5] = dog, plasma, IV 15 mg/kg, beagle dogs
[6] = dog, plasma, PO 60 mg/kg, beagle dogs

For `O=C([O-])[C@H](O)Cc1ccc(O)c(O)c1.[Na+]` [sodium danshensu, sodium D-(+)-β-(3,4-dihydroxyphenyl) lactate], the “RE (relative error vs spiked)” value ([1]; ambient temperature 2 h, spiked 20 ng/mL) was 5.0%, the “Measured (mean ± SD)” value ([1]; ambient temperature 2 h, spiked 20 ng/mL, beagle dog plasma) was 21.00 ± 1.42 ng/mL and the “RE (relative error vs spiked)” value ([1]; ambient temperature 2 h, spiked 800 ng/mL) was −3.6%. The “Measured (mean ± SD)” value ([1]; ambient temperature 2 h, spiked 800 ng/mL, beagle dog plasma) was 771.45 ± 23.94 ng/mL, the “Measured (mean ± SD)” value ([1]; autosampler 24 h (extracted samples), spiked 20 ng/mL) was 20.10 ± 1.22 ng/mL and the “Measured (mean ± SD)” value ([1]; autosampler 24 h (extracted samples), spiked 800 ng/mL) was 772.49 ± 29.64 ng/mL. For the same compound, the “RE (relative error vs spiked)” value ([1]; autosampler 24 h, spiked 20 ng/mL) was 0.5%, the “RE (relative error vs spiked)” value ([1]; autosampler 24 h, spiked 800 ng/mL) was −3.4% and the “long-term stability in plasma (in words)” value [1] was “stable”. For the same compound, the “long-term stability in plasma (in words)” value ([1]; listed as sodiusm danshensu) was “Excellent stability”, the “ambient temperature stability in plasma (in words)” value ([1]; beagle dog plasma, ambient temperature for 2 h) was “Excellent stability” and the “autosampler stability (in words)” value ([1]; extracted samples kept in the autosampler for 24 h) was “No degradation”. For the same compound, the “RE (relative error vs spiked)” value ([1]; long-term 20 days at −80 °C, spiked 20 ng/mL) was 2.5%, the “Measured (mean ± SD)” value ([1]; long-term 20 days at −80 °C, spiked 20 ng/mL, beagle dog plasma) was 20.50 ± 1.13 ng/mL and the “RE (relative error vs spiked)” value ([1]; long-term 20 days at −80 °C, spiked 800 ng/mL) was 3.1%. The “Measured (mean ± SD)” value ([1]; long-term 20 days at −80 °C, spiked 800 ng/mL, beagle dog plasma) was 825.29 ± 55.20 ng/mL, the “freeze-thaw stability, deviation of the concentration (in words)” value ([1]; three cycles of freezing and thawing) was “within the acceptable limit” and the “RE (relative error vs spiked)” value ([1]; three freeze-thaw cycles at −80 °C, spiked 20 ng/mL) was 7.2%. For the same compound, the “Measured (mean ± SD)” value ([1]; three freeze-thaw cycles at −80 °C, spiked 20 ng/mL, beagle dog plasma) was 21.45 ± 0.88 ng/mL, the “RE (relative error vs spiked)” value ([1]; three freeze-thaw cycles at −80 °C, spiked 800 ng/mL) was −0.2% and the “Measured (mean ± SD)” value ([1]; three freeze-thaw cycles at −80 °C, spiked 800 ng/mL, beagle dog plasma) was 798.54 ± 47.76 ng/mL. The AUC(0-inf) [2, 3] was 6870 ± 780 ng·h/mL, the AUC(0-t) [2, 3] was 6710 ± 810 ng·h/mL and the MRT [2, 3] was 0.88 ± 0.41 h. It also gave a Vd [2, 3] of 6.63 ± 3.49 L, a clearance [2, 3] of 123 mL/min and a half-life [2, 3] of 2.3 ± 1.23 h. It also gave a C0 [2, 3] of 36600 ± 3840 ng/mL, an AUC(0-inf) [2, 4] of 8460 ± 430 ng·h/mL and an AUC(0-t) [2, 4] of 8270 ± 380 ng·h/mL. It also gave an MRT [2, 4] of 1.08 ± 0.53 h, a Vd [2, 4] of 12.8 ± 5.5 L and a clearance [2, 4] of 197 mL/min. The half-life [2, 4] was 2.32 ± 1.33 h, the C0 [2, 4] was 46700 ± 15200 ng/mL and the AUC(0-inf) [2, 5] was 17800 ± 3040 ng·h/mL. For the same compound, the AUC(0-t) [2, 5] was 17800 ± 3030 ng·h/mL, the MRT [2, 5] was 0.73 ± 0.05 h and the Vd [2, 5] was 6.36 ± 1.48 L. It also gave a clearance [2, 5] of 144 mL/min, a half-life [2, 5] of 1.64 ± 0.39 h and a C0 [2, 5] of 79200 ± 18900 ng/mL. For the same compound, the AUC(0-inf) [2, 6] was 22700 ± 2570 ng·h/mL, the AUC(0-t) [2, 6] was 22200 ± 2480 ng·h/mL and the Cmax [2, 6] was 7920 ± 1770 ng/mL. The MRT [2, 6] was 4.23 ± 0.2 h, the Tmax [2, 6] was 2.83 ± 0.41 h and the half-life [2, 6] was 1.84 ± 0.29 h. It also gave a bioavailability ([2]; dog, plasma, beagle dogs, estimated via AUC0→∞ of oral (60 mg/kg) and intravenous administration, read-out: mean absolute bioavailability (%F)) of 34.8% and a concentration at 1.5 h ([2]; one beagle dog plasma sample, 1.5 h after intravenous 10 mg/kg, read-out: assayed plasma concentration) of 930 ng/mL.
